# Assay results from article PMC13375149 (Journal of Raman spectroscopy : JRS, 2025).
# How the values were obtained:
# [1] = SERS detection and time profile of PAHs/PAC in murine tissue extracts; type: in vivo, mice (C57BL6J)
# [2] = GC-MS/MS quantification of B[a]P, PYR and TQE in tissues; type: in vivo, mice (C57BL6J)
# [3] = 24, 48, 72 h post-injection, t(1) < 12.71, p > 0.05 as printed
"Tissue accumulation relative to the other analyzed compounds ([2]; IP mixture, brain, kidney, liver, lung, 24-72 h post-exposure)",SMILES,"Detection in liver and kidney tissues using SERS and SEIRA ([1]; mouse, in vivo)","Statistical significance of GC-MS/MS tissue concentrations [2, 3]","Detection in liver and kidney tissues using SERS and SEIRA ([1]; mice exposed to individual PAHs or PACs, Figs. S3 and S4)","Statistical significance of GC-MS/MS tissue concentrations ([2]; female, C57BL6J, mouse, in vivo)"
lowest accumulation,"O=C1c2ccccc2C(=O)c2cc3ccccc3cc21 [TQE, 5,12-Naphthacenequinone]",successful detection,statistically significant across all tissues and time points,–,–
–,"c1cc2ccc3cccc4ccc(c1)c2c34 [PYR, pyrene]",–,statistically significant across all tissues and time points,successful detection,–
–,"c1ccc2c(c1)cc1ccc3cccc4ccc2c1c34 [B[a]P, benzo(a)pyrene]",successful detection,–,–,statistically significant except in lung at 72 hours post-injection
